Test results taken from PubChem BioAssay (NCI).
Several values for one entry are separate records, joined by “and”; a condition that tells them apart may be missing. Equal entries are not always repeated.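 Tested at 5 concentrations; 48 h exposure; 96-well plates; endpoints linearly interpolated, else capped at highest concentration. Here, GI50 denotes the concentration required for 50% inhibition of growth. The concentration for full growth arrest is given as TGI.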

Experiments:
Assay in all cases: inhibition of tumour cell growth, NCI panel, 48 h
[1] = test system: 786-0 renal
[2] = test system: BT-549 breast
[3] = test system: HL-60(TB) leukemia
[4] = test system: HOP-62 NSCLC
[5] = test system: HT29 colon
[6] = test system: NCI-H460 lung
[7] = test system: OVCAR-3 ovarian
[8] = test system: OVCAR-8 ovarian
[9] = test system: RXF 393 renal
[10] = test system: UACC-62 melanoma

Structure (SMILES) | GI50 [1] | TGI [1] | GI50 [2] | TGI [2] | GI50 [3] | TGI [3] | GI50 [4] | TGI [4] | GI50 [5] | TGI [5] | GI50 [6] | TGI [6] | GI50 [7] | TGI [7] | GI50 [8] | TGI [8] | GI50 [9] | TGI [9] | GI50 [10] | TGI [10]
CC(=O)O[C@@H]1C[C@]2(C(C)C)O[C@@]1(C)[C@@H]1CCC(C)=C1[C@@H]2OC(=O)/C=C/c1ccccc1 | 84.3 µM | > 100 µM | 51.3 µM | > 100 µM | 25.1 µM | > 100 µM | 88.8 µM | > 100 µM | 30.6 µM | > 100 µM | 30.9 µM | > 100 µM | 22.5 µM | > 100 µM | 8.89 µM | > 100 µM | 8.83 µM | 65.9 µM | 26.5 µM | > 100 µM
O=C1/C(=C\c2cccn2Cc2ccccc2)c2ccccc2N1c1c(Cl)cccc1Cl | > 100 µM | > 100 µM | > 100 µM | > 100 µM | > 100 µM | > 100 µM | > 100 µM | > 100 µM | 10.7 µM | > 100 µM | 4.43 µM | > 100 µM | 1.32 µM | > 48.7 µM | > 100 µM | > 100 µM | > 100 µM | > 100 µM | 3.28 µM | > 100 µM
O=C(Nc1ccc(Cl)cc1F)c1cc(Br)ccc1O | 2.58 µM | 7.43 µM | 0.685 µM | 3.01 µM | 0.919 µM | 3.77 µM | 1.25 µM | 7.96 µM | 3.67 µM | > 100 µM | 0.653 µM | 18.3 µM | 0.604 µM | 14.2 µM | 1.13 µM | > 37.4 µM | 0.799 µM | 3.75 µM | 0.305 µM | 1.26 µM
Cc1c(C2Nc3ccccc3C2C)[nH]c2ccccc12 (stereo not drawn) | 12 µM | 31.5 µM | 13.8 µM | 34.5 µM | 13.1 µM | 38.3 µM | 12.1 µM | 26.1 µM | 4.48 µM | 23.1 µM | 0.43 µM | 18.3 µM | 11.6 µM | 27.2 µM | 9.1 µM | 29.2 µM | 12.4 µM | 28.8 µM | 6.24 µM | 21.3 µM
O=c1[nH]c2cc(Cl)ccc2n1C1CCN(CCCC(c2ccc(F)cc2)c2ccc(F)cc2)CC1 | 1.46 µM | 2.79 µM | 1.32 µM | 2.92 µM | 2.97 µM | 14.7 µM | 1.55 µM | 3.05 µM | 0.766 µM | 2.16 µM | 1.74 µM | 3.14 µM | 1.81 µM | 3.27 µM | 1.69 µM | 3.56 µM | 0.48 µM | 2.02 µM | 1.71 µM | 3.13 µM
Cc1cc(NC(=O)c2ccc(C)c(Nc3nccc(-c4cccnc4)n3)c2)cc(-n2cnc(C)c2)c1 | 1.56 µM | 6.12 µM | 0.159 µM | 9.98 µM | 14.5 µM | > 50 µM | 1.68 µM | 6.7 µM | 1.73 µM | 5.33 µM | 0.0794 µM | 4.16 µM | 1.87 µM | 4.83 µM | 4.27 µM | 13.7 µM | 1.56 µM | 4.88 µM | 2.92 µM | 11 µM
CN(C)c1ccc2nc3ccc(=O)cc-3sc2c1 | 2.06 µM | > 100 µM | 0.712 µM | > 100 µM | 0.77 µM | 3.94 µM | 0.763 µM | > 56.9 µM | 4.26 µM | 37.1 µM | 1.55 µM | 15.7 µM | 0.598 µM | > 28.1 µM | 0.651 µM | > 100 µM | 2.92 µM | 36.9 µM | 1.32 µM | 8.69 µM
Fc1ccc(Nc2cc(-n3nnc4ccccc43)nc3ccccc23)cc1 | 13.1 µM | > 49.9 µM | > 47.9 µM | > 89 µM | > 100 µM | > 100 µM | 13.8 µM | > 34 µM | 43.9 µM | > 100 µM | 26.2 µM | > 100 µM | 28.4 µM | > 100 µM | 22.2 µM | > 79 µM | 0.781 µM | 27.6 µM | 36.4 µM | > 69.2 µM
COc1ccc(CNc2c3ccccc3nc3ccccc23)cc1OC | 2.78 µM | 12.1 µM | 3.15 µM | 12.2 µM | 2.96 µM | 10 µM | 2.96 µM | 13.3 µM | 1.71 µM | 7.85 µM | 2.49 µM | 6.51 µM | 2.64 µM | 8.39 µM | 2.17 µM | 12.1 µM | 1.49 µM | 3.64 µM | 2.42 µM | 7.46 µM
O=C(Nc1cccc(Cl)c1)c1cc2ccccc2cc1O | 3.6 µM and 3.12 µM | > 100 µM | 2.42 µM and 1.84 µM | 7.66 µM and 9.29 µM | 3.16 µM and 1.61 µM |  | 2.8 µM and 2.47 µM |  | 45.8 µM and 29.1 µM | > 100 µM | 2.47 µM and 2.48 µM | > 100 µM | 1.43 µM | > 100 µM | 2.94 µM and 3.39 µM | > 100 µM | 2.74 µM and 2.93 µM | > 100 µM and 14.5 µM | 1.55 µM and 0.657 µM | > 100 µM
